Measurements from article PMC11576293, “New series of 4,6-diaryl pyrimidines: facile synthesis and antiproliferative activity as dual EGFR/VEGFR-2 inhibitors” (Frontiers in Chemistry, 2024).

Legend:
Type in all cases: cell-based
HS 578T = assay: NCI-60 single-dose screen; settings: Homo sapiens, single dose 10 µM, '-' = no inhibition, read-out: % Growth Inhibition
Summary of the method: (§1)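 NCI Developmental Therapeutics Program screen across 60 human cancer cell lines from nine tumor types; compounds tested at a single dose of 10 μM.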

OVCAR-5 = assay: NCI-60 single-dose screen; settings: Homo sapiens, single dose 10 µM, '-' = no inhibition, read-out: % Growth Inhibition
Summary of the method: as §1

SK-MEL-5 = assay: NCI-60 single-dose screen; settings: Homo sapiens, single dose 10 µM, '-' = no inhibition, read-out: % Growth Inhibition
Summary of the method: as §1

T-47D = assay: NCI-60 single-dose screen; settings: Homo sapiens, T47D, single dose 10 µM, '-' = no inhibition, read-out: % Growth Inhibition
Summary of the method: as §1

HCT-116 = assay: NCI-60 single-dose screen; settings: Homo sapiens, single dose 10 µM, '-' = no inhibition, read-out: % Growth Inhibition
Summary of the method: as §1

HOP-62 = assay: NCI-60 single-dose screen; settings: Homo sapiens, single dose 10 µM, '-' = no inhibition, read-out: % Growth Inhibition
Summary of the method: as §1

U251 = assay: NCI-60 single-dose screen; settings: Homo sapiens, U-251, single dose 10 µM, '-' = no inhibition, read-out: % Growth Inhibition
Summary of the method: as §1

A549/ATCC = assay: NCI-60 single-dose screen; settings: Homo sapiens, single dose 10 µM, '-' = no inhibition, read-out: % Growth Inhibition
Summary of the method: as §1

HOP-92 = assay: NCI-60 single-dose screen; settings: Homo sapiens, single dose 10 µM, '-' = no inhibition, read-out: % Growth Inhibition
Summary of the method: as §1

COLO 205 = assay: NCI-60 single-dose screen; settings: Homo sapiens, single dose 10 µM, '-' = no inhibition, read-out: % Growth Inhibition
Summary of the method: as §1

786-0 = assay: NCI-60 single-dose screen; settings: Homo sapiens, single dose 10 µM, '-' = no inhibition, read-out: % Growth Inhibition
Summary of the method: as §1

OVCAR-4 = assay: NCI-60 single-dose screen; settings: Homo sapiens, single dose 10 µM, '-' = no inhibition, read-out: % Growth Inhibition
Summary of the method: as §1

[1] = Cell viability assay (MTT) on normal cells; settings: human, MCF-10A normal mammary gland epithelial cells, 4 days incubation
Protocol: (§2) This experiment examines the impact of the newly developed compounds 9–29 on normal cell lines to assess their safety level. The vitality of the investigated compounds was assessed using the MCF-10 A cell line, a normal human mammary gland epithelial cell line. Following 4 days of incubation on MCF-10 A cells with each examined compound at a concentration of 50 μM, the vitality of the cells was assessed using the MTT test ([Mahmoud et al., 2022]; [Mekheimer et al., 2022]).
as §2, with “The viability” for “The vitality”, “of 9–29” for “of the investigated compounds”, “2022]). Refer to Supplementary Material A1 for more details. […]” for “2022]).”
4.2. Biological evaluation
4.2.1. Cytotoxic activity using MTT Assay and evaluation of IC50
MTT assay was carried out to study the effect of compounds on mammary epithelial cells (MCF-10A). The medium in which cells were propagated contained Dulbecco's modified Eagle's medium (DMEM)/ Ham's F-12 medium (1:1) supplemented with epidermal growth factor (20 ng/mL), hydrocortisone (500 ng/mL), insulin (10 μg/mL), 2 mM glutamine and 10% foetal calf serum.
After every 2-3 days, the cells were passaged using trypsin ethylenediamine tetra acetic acid (EDTA). The cells were seeded at a density of 10^4 cells mL-1 in flat-bottomed culture plates containing 96 wells each. After 24 h, medium was removed from the plates and the compounds in (in 0.1% DMSO) were added (in 200 μL medium to yield a final concentration of 0.1% v/v) to the wells of plates. A single compound was designated with four wells followed by incubation of plates for 96h at 37°C. After incubation, medium was removed completely from the plates followed by addition of MTT (0.4 mg/mL in medium) to each well and subsequent incubation of plates for 3h. MTT (along with the medium) was removed and DMSO (150μL) was added to each well of the culture plates, followed by vertexing and subsequent measurement of absorbance (at 540 nm) using microplate reader. The data are shown as percentage inhibition of proliferation in comparison with controls containing 0.1% DMSO. […]

Panc-1 = assay: Antiproliferative assay (MTT); settings: Homo sapiens, Panc-1 (pancreatic), read-out: Antiproliferative activity IC50 ± SEM, Panc-1
Source text: (§3) The MTT test was employed for this investigation ([Hisham et al., 2022]; [El-Sherief et al., 2019]; [Ramadan et al., 2020]). Table 2 presents the four cancer cell lines’ median inhibitory concentration (IC50) and GI50 (average IC50) values.
(§4) The MTT test was employed for this investigation ([Hisham et al., 2022]; [El-Sherief et al., 2019]; [Ramadan et al., 2020]). The IC50 values were derived from dose-response tests. The reported data are derived from at least two independent studies, each comprising three replicates per concentration. See Supplementary Material A1 for more details.
(§5) (in 0.1% DMSO) were added (in 200 μL medium to yield a final concentration of 0.1% v/v) to the wells of plates. A single compound was designated with four wells followed by incubation of plates for 96h at 37°C. After incubation, medium was removed completely from the plates followed by addition of MTT (0.4 mg/mL in medium) to each well and subsequent incubation of plates for 3h. MTT (along with the medium) was removed and DMSO (150μL) was added to each well of the culture plates, followed by vertexing and subsequent measurement of absorbance (at 540 nm) using microplate reader. The data are shown as percentage inhibition of proliferation in comparison with controls containing 0.1% DMSO.
(§6) 4.2.1.2. Assay for antiproliferative effect […]
(§7) (10%) and 1 µg/mL each of aprotinin, leupeptin and pepstatin for 120 min. The purification was performed either at 4 °C or on ice. To record autophosphorylation level, EGFR kinase assay was carried out on the basis of DELFIA/Time-Resolved Fluorometry. The compounds were first
(§8) (1 picture or pasted object on this page, not shown here)

MCF-7 = assay: Antiproliferative assay (MTT); settings: Homo sapiens, MCF7, MCF-7 (breast), read-out: Antiproliferative activity IC50 ± SEM, MCF-7
Source text: as §3, §4, §5, §6, §7, §8

Structure (SMILES)	inhibition at 10 µM (HS 578T) [%]	inhibition at 10 µM (OVCAR-5) [%]	inhibition at 10 µM (SK-MEL-5) [%]	inhibition at 10 µM (T-47D) [%]	inhibition at 10 µM (HCT-116) [%]	inhibition at 10 µM (HOP-62) [%]	inhibition at 10 µM (U251) [%]	inhibition at 10 µM (A549/ATCC) [%]	inhibition at 10 µM (HOP-92) [%]	inhibition at 10 µM (COLO 205) [%]	inhibition at 10 µM (786-0) [%]	inhibition at 10 µM (OVCAR-4) [%]	viability at 4 days, 50 µM [1] [%]	IC50 (Panc-1) [nM]	IC50 (MCF-7) [nM]
C=CCSc1nc(-c2ccc(Cl)cc2)cc(-c2ccc(OC)cc2)n1 [Compound 13, 2-(Allylthio)-4-(4-chlorophenyl)-6-(4-methoxyphenyl)pyrimidine]	< 0	< 0	1	18.4	5.47	< 0	< 0	< 0	< 0	< 0	3.01	12.1	90	66 ± 6	68 ± 6
COc1ccc(-c2cc(-c3cccc(OC)c3)nc(SC(C)C)n2)cc1 [Compound 19, 2-(Isopropylthio)-6-(3-methoxyphenyl)-4-(4-methoxyphenyl)pyrimidine]	4.95	0.61	7.31	24.6	23.8	< 0	10.2	15.9	< 0	0.02	4.09	4.28	90	30 ± 2	32 ± 3
CCCSc1nc(-c2ccc(Cl)cc2)cc(-c2ccc(OC)c(OC)c2)n1 [Compound 25, 4-(4-Chlorophenyl)-6-(3,4-dimethoxyphenyl)-2-(propylthio)pyrimidine]	< 0	4.78	0.38	34.5	< 0	< 0	7.53	17.3	< 0	31.7	< 0	20.2	91	32 ± 3	34 ± 3
CCCSc1nc(-c2ccc(Cl)cc2)cc(-c2ccc(OC)cc2)n1 [Compound 11, 4-(4-Chlorophenyl)-6-(4-methoxyphenyl)-2-(propylthio)pyrimidine]	< 0	< 0	3.98	8.26	< 0	< 0	5.99	6.74	< 0	< 0	0.11	< 0	89	54 ± 5	55 ± 5
